Experimental data from EP3011965B1, “SALVIA MILTIORRHIZA EXTRACT, MICROPELLET FORMULATION THEREOF, METHODS OF PREPARING SAME, AND USES THEREOF” (Tasly Pharmaceutical Group Co., Ltd., priority 2013, dated 2014).
Marks after values point to notes of the source that are not given here.

Tested on: zebra fish high blood lipid model
Assay: Quantitative evaluation of blood lipid lowering effect in zebra fish high blood lipid model
Format: in vivo, zebra fish of ALBINO strain
Conditions: 48 hours after treatment; for Blood lipid reducing rate: 0.081 µg/ml (text: 0.08 µg/ml), vs model group
Method: Animal: Zebra fish embryos were propagated by means of natural pair mating. Each mating, 4∼5 pairs of adult were prepared, and in average, each pair of zebra fish produced 200∼300 embryos. At 6th hour post-fertilization (6hpf) and 24hpf, the embryos were cleaned (removing dead embryo) and qualified embryos were selected according to embryo developing stage (Kimmel et al. 1995). At 28°C, embryos were incubated in fish-farming water, which contained 200mg instant soluble sea salt in 1L reverse osmosis water with conductivity of 480-510 µS/cm, pH of 6.9-7.2, hardness of 53.7-71.6 mg/L CaCO3. Feeding was required since 9 days post-fertilization (9dPf) because the embryos could get nutrients from their own yolk sac. After study, tricaine methane sulfonate (TMS) was used to overexpose the embryos in various developmental stages and the zebra fish were anesthetized and sacrificed. Sacrifice procedure was in light of the sacrifice-under-anesthesia regulatory requirement of AVMA (America Veterinary medical Association).
According to results of part A, the blood lipid lowering effect of Danshen extract in three concentrations was evaluated (usually at MNLC, 1/3MNLC and 1/10 MNLC), and 30 zebra fish treated in each concentration.
High-fat food was used to feed juvenile fish of zebra fish of ALBINO strain to induce zebra fish high blood lipid model.
After feeding, the zebra fish high blood lipid model was treated with tested drug for 48 hours.
Positive drug: lovastatin at 0.08 µg/ml.
After being treated with tested drugs, zebra fish were fat stained with fat-specific colorant.
Fifteen zebra fish were randomly selected in each concentration to observe intensity of zebra fish tail blood fat stain, pictured and saved.
Image -Pro Plus 6.0 image analytical software was used to analyze the image. The signal strength of zebra fish tail blood fat stain (S) was calculated and quantitatively analyzed. The statistical results were expressed as X ± SE. […]

SMILES: CC[C@H](C)C(=O)O[C@H]1C[C@@H](C)C=C2C=C[C@H](C)[C@H](CC[C@@H]3C[C@@H](O)CC(=O)O3)[C@H]21 [Lovastatin, lovastatin]
- Blood lipid reducing rate: 26.3* %
- Blood lipid reducing rate (listed as lovastatin): 26.3%
- Tail blood lipid IOD (0.081 µg/ml, Mean±SE): 2142±109
